Reference: ChEMBL document CHEMBL5291721, “A preclinical secondary pharmacology resource illuminates target-adverse drug reaction associations of marketed drugs” (Nat Commun, 2023)
*1 amine or outer side, *2 acyl side, *3 side chain or, on linkers, in order; H or OH if unused. Where a SMILES comes first, the peptide text is derived from it. Bridges are numbered along the chain shown (N, C = ends). [ ]: non-standard residue; d: D form. The star is where a group is joined. hTyr(3S-OH,4S-OH,3'-OSO3H) = N[C@H](C(=O)O)[C@H](O)[C@@H](O)c1ccc(O)c(OS(=O)(=O)O)c1; Orn(4R-OH,5R-OH) = O=C([C@H](C[C@@H](O)[C@@H](O)N[*:3])N[*:1])[*:2]; Pro(3S-OH,4S-Me) = C[C@H]1CN[C@H](C(=O)O)[C@H]1O; X1 = CCCCCOc1ccc(-c2cc(-c3ccc(C(=O)*)cc3)no2)cc1; Gln(3R-OH) = NC(=O)C[C@@H](O)[C@H](N)C(=O)O; Hyp = O=C(O)[C@@H]1C[C@@H](O)CN1

What was measured:
[1] = target: T1, Muscarinic acetylcholine receptor M1 (Homo sapiens, UniProt P11229); type: functional, cell-based
T1 sequence (P11229 whole entry): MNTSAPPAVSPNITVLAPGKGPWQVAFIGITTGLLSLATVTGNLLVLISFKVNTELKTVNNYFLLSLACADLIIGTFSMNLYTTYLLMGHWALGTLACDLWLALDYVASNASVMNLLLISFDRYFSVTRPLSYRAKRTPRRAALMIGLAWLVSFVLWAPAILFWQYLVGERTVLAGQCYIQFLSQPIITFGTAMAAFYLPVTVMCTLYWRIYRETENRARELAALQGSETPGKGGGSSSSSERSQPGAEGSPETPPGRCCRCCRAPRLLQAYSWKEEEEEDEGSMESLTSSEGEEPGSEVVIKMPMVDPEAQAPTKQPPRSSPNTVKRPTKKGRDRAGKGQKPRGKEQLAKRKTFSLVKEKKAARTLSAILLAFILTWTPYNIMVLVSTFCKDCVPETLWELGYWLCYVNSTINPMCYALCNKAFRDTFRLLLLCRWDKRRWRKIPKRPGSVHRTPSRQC

[2] = target: T2, Muscarinic acetylcholine receptor M2 (Homo sapiens, UniProt P08172); type: functional, cell-based
T2 sequence (P08172 whole entry): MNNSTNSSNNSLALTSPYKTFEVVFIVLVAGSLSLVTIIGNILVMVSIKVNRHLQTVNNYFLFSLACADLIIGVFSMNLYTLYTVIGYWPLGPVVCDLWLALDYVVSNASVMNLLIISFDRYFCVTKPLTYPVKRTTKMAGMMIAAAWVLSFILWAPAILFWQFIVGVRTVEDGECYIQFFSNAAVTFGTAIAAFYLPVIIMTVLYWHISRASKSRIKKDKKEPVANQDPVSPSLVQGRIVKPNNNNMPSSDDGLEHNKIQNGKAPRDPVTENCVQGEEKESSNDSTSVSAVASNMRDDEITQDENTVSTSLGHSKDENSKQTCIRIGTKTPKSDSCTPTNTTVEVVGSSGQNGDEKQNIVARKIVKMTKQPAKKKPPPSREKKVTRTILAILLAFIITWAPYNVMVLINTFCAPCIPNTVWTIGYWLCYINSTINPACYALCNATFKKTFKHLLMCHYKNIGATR

Cannabinoid receptor 1 = Cannabinoid receptor 1 (Homo sapiens, UniProt P21554); type: functional, cell-based
D(1A) dopamine receptor = D(1A) dopamine receptor (Homo sapiens, UniProt P21728); type: functional, cell-based
Glucocorticoid receptor = target: T3, Glucocorticoid receptor (Homo sapiens, UniProt P04150)
T3 sequence (P04150 whole entry): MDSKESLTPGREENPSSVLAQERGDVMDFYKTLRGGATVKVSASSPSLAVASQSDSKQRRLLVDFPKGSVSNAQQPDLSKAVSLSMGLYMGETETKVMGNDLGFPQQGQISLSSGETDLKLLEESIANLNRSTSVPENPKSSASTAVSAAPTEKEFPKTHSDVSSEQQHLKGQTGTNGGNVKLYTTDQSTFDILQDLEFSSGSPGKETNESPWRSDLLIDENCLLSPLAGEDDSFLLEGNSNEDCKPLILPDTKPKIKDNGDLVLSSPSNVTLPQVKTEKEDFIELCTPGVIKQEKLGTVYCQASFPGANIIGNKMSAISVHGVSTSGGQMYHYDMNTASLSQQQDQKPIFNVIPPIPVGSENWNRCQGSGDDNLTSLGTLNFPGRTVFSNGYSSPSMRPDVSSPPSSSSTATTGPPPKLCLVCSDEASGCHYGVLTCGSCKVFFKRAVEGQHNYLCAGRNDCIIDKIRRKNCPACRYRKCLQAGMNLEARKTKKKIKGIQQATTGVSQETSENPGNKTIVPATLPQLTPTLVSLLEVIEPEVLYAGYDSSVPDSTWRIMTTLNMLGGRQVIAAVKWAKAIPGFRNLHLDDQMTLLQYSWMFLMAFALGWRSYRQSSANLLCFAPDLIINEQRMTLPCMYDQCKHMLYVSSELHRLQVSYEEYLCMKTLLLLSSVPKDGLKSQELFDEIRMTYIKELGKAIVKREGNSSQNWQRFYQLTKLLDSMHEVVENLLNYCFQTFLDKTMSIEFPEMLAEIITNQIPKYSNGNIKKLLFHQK

Progesterone receptor = target: T4, Progesterone receptor (Homo sapiens, UniProt P06401); type: functional
T4 sequence (P06401 whole entry): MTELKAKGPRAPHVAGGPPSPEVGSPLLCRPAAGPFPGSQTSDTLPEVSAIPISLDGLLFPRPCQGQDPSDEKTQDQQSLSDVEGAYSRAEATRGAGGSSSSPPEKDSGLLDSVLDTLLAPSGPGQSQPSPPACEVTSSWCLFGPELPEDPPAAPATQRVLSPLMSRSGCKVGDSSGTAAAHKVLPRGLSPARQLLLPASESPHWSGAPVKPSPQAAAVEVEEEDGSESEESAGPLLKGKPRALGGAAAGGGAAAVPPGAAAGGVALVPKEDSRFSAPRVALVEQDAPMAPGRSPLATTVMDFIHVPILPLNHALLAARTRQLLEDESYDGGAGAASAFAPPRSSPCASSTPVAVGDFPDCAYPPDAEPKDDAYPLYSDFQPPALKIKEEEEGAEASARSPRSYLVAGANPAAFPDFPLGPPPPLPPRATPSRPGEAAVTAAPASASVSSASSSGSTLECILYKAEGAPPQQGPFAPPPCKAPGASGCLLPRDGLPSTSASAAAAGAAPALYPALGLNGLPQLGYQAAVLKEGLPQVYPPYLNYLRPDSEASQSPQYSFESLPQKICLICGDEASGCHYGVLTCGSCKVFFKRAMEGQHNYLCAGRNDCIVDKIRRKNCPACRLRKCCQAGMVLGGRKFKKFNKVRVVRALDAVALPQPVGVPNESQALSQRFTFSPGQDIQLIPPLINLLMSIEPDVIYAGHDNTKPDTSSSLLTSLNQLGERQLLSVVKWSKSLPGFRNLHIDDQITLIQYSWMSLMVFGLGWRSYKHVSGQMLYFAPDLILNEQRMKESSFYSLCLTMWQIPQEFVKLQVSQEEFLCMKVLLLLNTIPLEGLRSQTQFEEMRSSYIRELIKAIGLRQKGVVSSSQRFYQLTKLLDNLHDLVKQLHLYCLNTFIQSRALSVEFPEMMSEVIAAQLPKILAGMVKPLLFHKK

[3] = target: Sodium-dependent noradrenaline transporter (Homo sapiens, UniProt P23975)
D(3) dopamine receptor = D(3) dopamine receptor (Homo sapiens, UniProt P35462)
Also: assay procedure not described here.

Sequence of D(1A) dopamine receptor (P21728 whole entry): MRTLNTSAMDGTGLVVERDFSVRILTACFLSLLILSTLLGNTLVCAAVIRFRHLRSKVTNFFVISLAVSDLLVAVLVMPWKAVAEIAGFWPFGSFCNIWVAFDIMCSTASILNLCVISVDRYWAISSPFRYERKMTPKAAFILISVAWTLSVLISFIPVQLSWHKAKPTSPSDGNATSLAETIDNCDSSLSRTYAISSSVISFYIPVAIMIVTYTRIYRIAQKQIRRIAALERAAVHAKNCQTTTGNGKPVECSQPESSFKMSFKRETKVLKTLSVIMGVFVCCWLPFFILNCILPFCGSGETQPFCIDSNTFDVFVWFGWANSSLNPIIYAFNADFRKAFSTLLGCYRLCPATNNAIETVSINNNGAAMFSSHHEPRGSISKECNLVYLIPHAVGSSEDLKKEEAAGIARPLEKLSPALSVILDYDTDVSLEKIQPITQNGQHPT
Sequence of Cannabinoid receptor 1 (P21554 whole entry): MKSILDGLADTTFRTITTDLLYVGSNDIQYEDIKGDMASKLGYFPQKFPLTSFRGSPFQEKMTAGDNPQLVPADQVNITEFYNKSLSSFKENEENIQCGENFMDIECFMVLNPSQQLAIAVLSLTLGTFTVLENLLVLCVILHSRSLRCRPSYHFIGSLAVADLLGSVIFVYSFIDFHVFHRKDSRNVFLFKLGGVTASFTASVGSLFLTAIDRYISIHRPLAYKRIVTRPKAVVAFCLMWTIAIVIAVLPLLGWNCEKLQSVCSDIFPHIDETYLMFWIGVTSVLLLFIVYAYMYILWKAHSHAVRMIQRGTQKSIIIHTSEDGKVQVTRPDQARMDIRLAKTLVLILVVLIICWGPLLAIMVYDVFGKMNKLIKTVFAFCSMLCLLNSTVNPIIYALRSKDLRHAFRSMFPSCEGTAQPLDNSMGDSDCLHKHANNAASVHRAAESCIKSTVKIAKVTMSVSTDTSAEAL
Sequence of Sodium-dependent noradrenaline transporter (P23975 whole entry): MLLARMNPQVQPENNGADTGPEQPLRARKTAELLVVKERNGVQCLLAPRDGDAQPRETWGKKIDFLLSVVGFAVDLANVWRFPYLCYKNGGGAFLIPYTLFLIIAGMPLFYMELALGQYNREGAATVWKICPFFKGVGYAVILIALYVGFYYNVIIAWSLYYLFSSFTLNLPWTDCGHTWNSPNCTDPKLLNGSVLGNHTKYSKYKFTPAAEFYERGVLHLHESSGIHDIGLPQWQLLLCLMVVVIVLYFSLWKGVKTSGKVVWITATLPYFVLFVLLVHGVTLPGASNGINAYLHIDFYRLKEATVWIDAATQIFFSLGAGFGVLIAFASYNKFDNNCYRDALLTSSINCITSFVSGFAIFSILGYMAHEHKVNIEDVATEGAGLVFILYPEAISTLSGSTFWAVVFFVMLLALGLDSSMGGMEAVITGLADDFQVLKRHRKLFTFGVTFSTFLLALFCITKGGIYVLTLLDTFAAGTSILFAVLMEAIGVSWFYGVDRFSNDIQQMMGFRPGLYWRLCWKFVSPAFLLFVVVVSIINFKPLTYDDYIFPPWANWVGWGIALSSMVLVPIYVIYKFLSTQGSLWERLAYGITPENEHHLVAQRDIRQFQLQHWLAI
Sequence of D(3) dopamine receptor (P35462 whole entry): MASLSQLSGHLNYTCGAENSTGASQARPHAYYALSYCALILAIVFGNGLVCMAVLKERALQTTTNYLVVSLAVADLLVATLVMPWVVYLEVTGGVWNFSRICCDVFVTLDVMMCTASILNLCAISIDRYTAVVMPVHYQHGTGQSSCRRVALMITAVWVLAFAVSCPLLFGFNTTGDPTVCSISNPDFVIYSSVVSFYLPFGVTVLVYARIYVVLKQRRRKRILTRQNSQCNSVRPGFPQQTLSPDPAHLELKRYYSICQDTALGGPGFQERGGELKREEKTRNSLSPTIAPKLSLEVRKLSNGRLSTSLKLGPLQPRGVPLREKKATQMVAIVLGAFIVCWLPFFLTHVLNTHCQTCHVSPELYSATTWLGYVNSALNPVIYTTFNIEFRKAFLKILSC

SMILES | AC50 [1] | AC50 [2] | AC50 (Cannabinoid receptor 1) | AC50 (D(1A) dopamine receptor) | AC50 (Glucocorticoid receptor) | AC50 (Progesterone receptor) | AC50 [3] | AC50 (D(3) dopamine receptor)
COc1nccnc1NS(=O)(=O)c1ccc(N)cc1 | > 30 µM | – | – | – | – | – | – | –
O=C(Nc1cccc2c(=O)cc(-c3nnn[nH]3)oc12)c1ccc(OCCCCc2ccccc2)cc1 | > 30 µM | – | – | – | – | – | – | –
NC(=O)c1nc(F)c[nH]c1=O | > 30 µM | – | – | – | – | – | – | –
CN(C)CCCN1C(=O)c2cc([N+](=O)[O-])ccc2Oc2ccccc21 | > 30 µM | – | – | – | – | – | – | –
O=C(O)COc1nn(Cc2ccccc2)c2ccccc12 [BENDAZAC] | > 30 µM | – | – | – | – | – | – | –
CCc1oc2ccccc2c1C(=O)c1cc(Br)c(O)c(Br)c1 [BENZBROMARONE] | – | 14 µM | > 30 µM | > 30 µM | 11 µM | > 30 µM | > 30 µM | > 30 µM
Cc1ccc([C@@H]2O[C@H](CO)[C@@H](O)[C@H](O)[C@H]2O)cc1Cc1ccc(-c2ccc(F)cc2)s1 [CANAGLIFLOZIN ANHYDROUS] | > 30 µM | – | – | – | – | – | – | –
O=C(O)c1cc(=O)c2ccccc2o1 [CHROMOCARB] | > 30 µM | – | – | – | – | – | – | –
COC(=O)[C@H](c1ccccc1Cl)N1CCc2sccc2C1 [CLOPIDOGREL] | – | > 30 µM | > 30 µM | 19 µM | > 30 µM | > 30 µM | > 30 µM | > 30 µM
CN(CC(=O)O)C(=N)N [CREATINE] | > 30 µM | – | – | – | – | – | – | –
N[C@@H](CSSC[C@H](N)C(=O)O)C(=O)O [CYSTINE] | > 30 µM | – | – | – | – | – | – | –
C[C@]12CC[C@@H]3c4ccc(O)cc4CC[C@H]3[C@@H]1CC[C@@H]2OC(=O)CCC1CCCC1 [ESTRADIOL CYPIONATE] | > 30 µM | – | – | – | – | – | – | –
Nc1nc(O)c2ncn(COC(CO)CO)c2n1 [GANCICLOVIR] | – | > 30 µM | > 30 µM | > 30 µM | > 30 µM | > 30 µM | > 30 µM | > 30 µM
C[C@]12CCC(=O)C=C1CC[C@@H]1[C@@H]2[C@@H](O)C[C@@]2(C)[C@H]1CC[C@]2(O)C(=O)COC(=O)CCC(=O)O [HYDROCORTISONE HEMISUCCINATE ANHYDROUS] | > 30 µM | – | – | – | – | – | – | –
N=C(N)NCc1cccc([123I])c1 [IOBENGUANE I 123] | > 30 µM | – | – | – | – | – | – | –
CC(C)(N)C(=O)N[C@H](Cc1c[nH]c2ccccc12)C(=O)N[C@H](Cc1c[nH]c2ccccc12)NC=O [MACIMORELIN] | > 30 µM | – | – | – | – | – | – | –
C=C1c2c(Cl)ccc(O)c2C(=O)C2=C(O)[C@]3(O)C(=O)C(C(N)=O)=C(O)[C@@H](N(C)C)[C@@H]3[C@@H](O)[C@H]12 [MECLOCYCLINE] | > 30 µM | – | – | – | – | – | – | –
Cc1cc2c(OCC(O)CNC(C)C)cccc2[nH]1 (stereo unspecified) [MEPINDOLOL] | > 30 µM | – | – | – | – | – | – | –
CC[C@@H](CO)NC(=O)[C@@H]1C=C2c3cccc4[nH]cc(c34)C[C@H]2N(C)C1 [METHYLERGONOVINE] | – | > 30 µM | > 30 µM | 0.0031 µM | > 30 µM | > 30 µM | > 30 µM | 0.29 µM
CCCCCOc1ccc(-c2cc(-c3ccc(C(=O)N[C@H]4C[C@@H](O)[C@@H](O)NC(=O)[C@@H]5[C@@H](O)[C@@H](C)CN5C(=O)[C@H]([C@H](O)CC(N)=O)NC(=O)[C@H]([C@H](O)[C@@H](O)c5ccc(O)c(OS(=O)(=O)O)c5)NC(=O)[C@@H]5C[C@@H](O)CN5C(=O)[C@H]([C@@H](C)O)NC4=O)cc3)no2)cc1 [MICAFUNGIN] (X1-[Orn(4R-OH,5R-OH)]T[Hyp][hTyr(3S-OH,4S-OH,3'-OSO3H)][Gln(3R-OH)][Pro(3S-OH,4S-Me)]; lactam 1-C) | 9.05 µM | – | – | – | – | – | – | –
CCOc1ccc2ccccc2c1C(=O)N[C@@H]1C(=O)N2[C@@H]1SC(C)(C)[C@@H]2C(=O)O [NAFCILLIN] | > 30 µM | – | – | – | – | – | – | –
CN(C)c1cc(CNCC(C)(C)C)c(O)c2c1C[C@H]1C[C@H]3[C@H](N(C)C)C(O)=C(C(N)=O)C(=O)[C@@]3(O)C(O)=C1C2=O [OMADACYCLINE] | – | > 30 µM | > 30 µM | > 30 µM | > 30 µM | > 30 µM | > 30 µM | 27 µM
O=C1NC(=O)C(c2ccccc2)(c2ccccc2)N1 [PHENYTOIN] | – | > 30 µM | > 30 µM | > 30 µM | > 30 µM | > 30 µM | > 30 µM | > 30 µM
CC(C)C[C@H](CN)CC(=O)O [PREGABALIN] | – | > 30 µM | > 30 µM | > 30 µM | > 30 µM | > 30 µM | > 30 µM | > 30 µM
NC(=O)c1ncn([C@@H]2O[C@H](CO)[C@@H](O)[C@H]2O)n1 [RIBAVIRIN] | – | > 10 µM | > 30 µM | > 10 µM | > 10 µM | > 10 µM | > 10 µM | > 30 µM
O=C(Nc1c(Cl)cncc1Cl)c1ccc(OC(F)F)c(OCC2CC2)c1 [ROFLUMILAST] | – | > 30 µM | > 30 µM | > 30 µM | > 30 µM | > 30 µM | > 30 µM | > 30 µM
CCCN(CCC)CCc1cccc2c1CC(=O)N2 [ROPINIROLE] | – | > 30 µM | > 30 µM | > 30 µM | > 30 µM | > 30 µM | > 30 µM | –
CC(C)N(CCCCOCC(=O)NS(C)(=O)=O)c1cnc(-c2ccccc2)c(-c2ccccc2)n1 [SELEXIPAG] | – | > 30 µM | > 30 µM | > 30 µM | > 30 µM | > 30 µM | > 30 µM | > 30 µM
Cc1cc(CC(=O)O)n(C)c1C(=O)c1ccc(Cl)cc1 [ZOMEPIRAC] | – | > 30 µM | > 30 µM | > 30 µM | > 30 µM | > 30 µM | > 30 µM | > 30 µM
